From PubChem BioAssay (NCI)
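Cells were grown in 96-well plates and exposed to each compound for 48 hours at five concentrations; endpoints were interpolated linearly between bracketing concentrations, or set to the highest concentration if not reached. The concentration for full growth arrest is given as TGI.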

Legend:
Assay in all cases: NCI anticancer screen, dose series, 48 h
NCI-H522 lung = tested on: NCI-H522 lung
UO-31 renal = tested on: UO-31 renal
SK-MEL-28 melanoma = tested on: SK-MEL-28 melanoma
KM12 colon = tested on: KM12 colon
LXFL 529 NSCLC = tested on: LXFL 529 NSCLC
LOX IMVI melanoma = tested on: LOX IMVI melanoma
HOP-92 NSCLC = tested on: HOP-92 NSCLC
OVCAR-3 ovarian = tested on: OVCAR-3 ovarian
HCT-15 colon = tested on: HCT-15 colon
HCT-116 colon = tested on: HCT-116 colon
OVCAR-8 ovarian = tested on: OVCAR-8 ovarian
MOLT-4 leukemia = tested on: MOLT-4 leukemia
HL-60(TB) leukemia = tested on: HL-60(TB) leukemia
SK-OV-3 ovarian = tested on: SK-OV-3 ovarian
CCRF-CEM leukemia = tested on: CCRF-CEM leukemia
RXF-631 renal = tested on: RXF-631 renal
EKVX NSCLC = tested on: EKVX NSCLC
OVCAR-4 ovarian = tested on: OVCAR-4 ovarian
SW-620 colon = tested on: SW-620 colon
COLO 205 colon = tested on: COLO 205 colon
M19-MEL melanoma = tested on: M19-MEL melanoma
SF-539 CNS = tested on: SF-539 CNS
DMS 273 small cell lung = tested on: DMS 273 small cell lung
SF-268 CNS = tested on: SF-268 CNS
KM20L2 colon = tested on: KM20L2 colon
CAKI-1 renal = tested on: CAKI-1 renal
HT29 colon = tested on: HT29 colon
SK-MEL-5 melanoma = tested on: SK-MEL-5 melanoma
SNB-75 CNS = tested on: SNB-75 CNS
ACHN renal = tested on: ACHN renal
HOP-62 NSCLC = tested on: HOP-62 NSCLC
MALME-3M melanoma = tested on: MALME-3M melanoma
M14 melanoma = tested on: M14 melanoma
UACC-62 melanoma = tested on: UACC-62 melanoma
SF-295 CNS = tested on: SF-295 CNS
786-0 renal = tested on: 786-0 renal
NCI-H460 lung = tested on: NCI-H460 lung
HOP-18 NSCLC = tested on: HOP-18 NSCLC
SR leukemia = tested on: SR leukemia
HCC-2998 colon = tested on: HCC-2998 colon
A549 NSCLC = tested on: A549 NSCLC
IGROV1 ovarian = tested on: IGROV1 ovarian
DMS 114 small cell lung = tested on: DMS 114 small cell lung
SNB-19 CNS = tested on: SNB-19 CNS
UACC-257 melanoma = tested on: UACC-257 melanoma
SN12C renal = tested on: SN12C renal
NCI-H23 lung = tested on: NCI-H23 lung
TK-10 renal = tested on: TK-10 renal

SMILES: O=C(Cc1nc2ccc(C(=O)c3ccccc3)cc2[nH]c1=O)C(=O)Nc1nc2ccccc2[nH]1
- TGI (NCI-H522 lung): > 100 µM
- TGI (UO-31 renal): > 100 µM
- TGI (SK-MEL-28 melanoma): > 100 µM
- TGI (KM12 colon): > 100 µM
- TGI (LXFL 529 NSCLC): > 100 µM
- TGI (LOX IMVI melanoma): > 100 µM
- TGI (HOP-92 NSCLC): 91.8 µM
- TGI (OVCAR-3 ovarian): > 100 µM
- TGI (HCT-15 colon): > 100 µM
- TGI (HCT-116 colon): > 100 µM
- TGI (OVCAR-8 ovarian): > 100 µM
- TGI (MOLT-4 leukemia): > 100 µM
- TGI (HL-60(TB) leukemia): > 100 µM
- TGI (SK-OV-3 ovarian): > 100 µM
- TGI (CCRF-CEM leukemia): > 100 µM
- TGI (RXF-631 renal): > 100 µM
- TGI (EKVX NSCLC): > 100 µM
- TGI (OVCAR-4 ovarian): > 100 µM
- TGI (SW-620 colon): > 100 µM
- TGI (COLO 205 colon): > 100 µM
- TGI (M19-MEL melanoma): > 100 µM
- TGI (SF-539 CNS): > 100 µM
- TGI (DMS 273 small cell lung): > 100 µM
- TGI (SF-268 CNS): > 100 µM
- TGI (KM20L2 colon): > 100 µM
- TGI (CAKI-1 renal): > 100 µM
- TGI (HT29 colon): > 100 µM
- TGI (SK-MEL-5 melanoma): > 100 µM
- TGI (SNB-75 CNS): > 100 µM
- TGI (ACHN renal): > 100 µM
- TGI (HOP-62 NSCLC): > 100 µM
- TGI (MALME-3M melanoma): > 100 µM
- TGI (M14 melanoma): > 100 µM
- TGI (UACC-62 melanoma): > 100 µM
- TGI (SF-295 CNS): > 100 µM
- TGI (786-0 renal): > 100 µM
- TGI (NCI-H460 lung): > 100 µM
- TGI (HOP-18 NSCLC): > 100 µM
- TGI (SR leukemia): > 100 µM
- TGI (HCC-2998 colon): > 100 µM
- TGI (A549 NSCLC): > 100 µM
- TGI (IGROV1 ovarian): > 100 µM
- TGI (DMS 114 small cell lung): 79.4 µM
- TGI (SNB-19 CNS): > 100 µM
- TGI (UACC-257 melanoma): > 100 µM
- TGI (SN12C renal): > 100 µM
- TGI (NCI-H23 lung): > 100 µM
- TGI (TK-10 renal): > 100 µM
